pIC50: −log10 of the molar value. ≈ marks a conversion by molar mass, not a printed value. Values belong to the molecule of their own block, whether it stands above or below them.
Key:
Staphylococcus aureus = assay: Antibacterial activity against methicillin-resistant Staphylococcus aureus assessed as bacterial growth inhibition; format: functional
A2780 = assay: Antiproliferative activity against human A2780 cells assessed as inhibition of cell growth measured after 72 hrs by SRB assay; format: functional, cell-based; conditions: A2780, 72 h
MDA-MB-231 = assay: Antiproliferative activity against human MDA-MB-231 cells assessed as inhibition of cell growth; format: functional, cell-based
HL-60 = assay: Antiproliferative activity against human HL-60 cells assessed as cell growth inhibition measured after 72 hrs by trypan blue staining based assay; format: functional
SCL-1 = assay: Induction of apoptosis in human SCL-1 cells by flow cytometry assay; format: functional; conditions: read-out: MEC
[1] = Antiproliferative activity against human UM-SCC-38 cells assessed as inhibition of cell growth; format: functional, cell-based
MOLM-13 = assay: Antiproliferative activity against human MOLM-13 cells assessed as inhibition of cell growth measured after 96 hrs by WST-8 assay; format: functional
[2] = Antiproliferative activity against human U87MG Human EGFR vIII cells assessed as inhibition of cell growth measured after 24 hrs by MTT assay; format: functional
Y79 = assay: Antiproliferative activity against human Y79 cells assessed as inhibition of cell growth measured after 72 hrs by MTT assay; format: functional
HT-29 = assay: Antiproliferative activity against human HT-29 cells assessed as inhibition of cell growth measured after 48 hrs by MTT assay; format: functional
[3] = Antiproliferative activity against human A2774 cells assessed as inhibition of cell growth measured after 72 hrs by XTT assay; format: functional
NB-4 = assay: Antiproliferative activity against human NB-4 cells assessed as inhibition of cell growth measured after 96 hrs by MTT assay; format: functional
ME-180 [4] = assay: Antiproliferative activity against human ME-180 cells assessed as inhibition of cell growth; format: functional
MCF7 = assay: Antiproliferative activity in human MCF7 cells assessed as cell growth inhibition measured after 72 hrs by cell counting assay; format: functional
A-375 = assay: Antiproliferative activity against human A-375 cells assessed as inhibition of cell growth measured after 24 hrs by WST-8 assay; format: functional
PC-3 = assay: Antiproliferative activity against human PC-3 cells assessed as inhibition of cell growth measured after 24 hrs by MTT assay; format: functional
ME-180 [5] = assay: Antiproliferative activity against human ME-180 ells assessed as inhibition of cell growth; format: functional, cell-based
ME-180 [6] = assay: Antiproliferative activity against human ME-180 cells assessed as inhibition of cell growth by [3H]-thymidine incorporation based liquid scintillation counter analysis; format: functional

Compound: O=C(O)c1ccc2cc(-c3ccc(O)c(C45CC6CC(CC(C6)C4)C5)c3)ccc2c1 [O-DEMETHYLATED ADAPALENE]
MIC (Staphylococcus aureus): 1 µg/mL (≈ 2.51 µM)

Compound: O=C(O)c1ccc(-c2ccc3cc(O)c(C45CC6CC(CC(C6)C4)C5)cc3c2)cc1
MIC (Staphylococcus aureus): 1 µg/mL (≈ 2.51 µM)

pIC50 (A2780): 6.01
Compound: CC1=C(/C=C/C(C)=C/C=C/C(C)=C/C(=O)Nc2ccc(O)cc2)C(C)(C)CC/C1=N\OCC(=O)O

pIC50 (MDA-MB-231): 6.05
Compound: CC1=C(/C=C/C(C)=C/C=C/C(C)=C/C(=O)Nc2ccc(F)cc2)C(C)(C)CCC1n1ccnc1 (stereo unspecified)

Compound: CC1=C(/C=C/C(C)=C/C=C/C(C)=C/C(=O)O)C(C)(C)CCC1 [TRETINOIN]
CC50 (HL-60): 23 nM
minimal effective concentration (SCL-1): ≤ 10 µM
pIC50 [1]: 5.30
CC50 (MOLM-13): 1240 nM
MCC [2]: 40 µM
MCC (Y79): 2000 nM
CC50 (HT-29): 4300 nM
CC50 [3]: 82 nM
CC50 (NB-4): 1500 nM
CC50 (ME-180 [4]): 80 nM
CC50 (MCF7): 20 nM
MCC (A-375): > 100 µM
CC50 (PC-3): 12700 nM

Compound: C/C(=C/C=C/C(C)=C/C(=O)O)c1cc(C(C)(C)C)cc(C(C)(C)C)c1
pIC50 (ME-180 [5]): 7.70

GI50 (MDA-MB-231): 10 nM
Compound: CCCC(=O)OCc1ccc(OC(=O)/C=C(C)/C=C/C=C(C)/C=C/C2=C(C)CCCC2(C)C)cc1

Compound: CC(/C=C/C=C(\C)c1cc(C(C)(C)C)cc(C(C)(C)C)c1)=C\C(=O)O
pIC50 (ME-180 [6]): 9.00

Compound: O=C(O)/C=C/c1ccc(-c2ccc(O)c(C34CC5CC(CC(C5)C3)C4)c2)cc1 [ADAROTENE]
MIC (Staphylococcus aureus): 1 µg/mL (≈ 2.67 µM)

Source: ChEMBL document CHEMBL5241070, “Overview of all-trans-retinoic acid (ATRA) and its analogues: Structures, activities, and mechanisms in acute promyelocytic leukaemia” (Eur J Med Chem, 2021)
